The nature of series [1]: Measurement of Liposomal pKa of LNP (TNS fluorescence). The series is classed as physicochemical. The conditions noted are these: LNP without nucleic acid, cationic lipid:DOPC:Chol=52.5:7.5:40 + about 1.5 mol DMG-PEG2k; pH at which relative TNS fluorescence intensity was 50%. The method, then:
Lipid nanoparticles (LNP) without containing nucleic acid were used for the evaluation of Liposomal pKa.
A 10 mM ethanol solution of cationic lipid, a 5 mM ethanol solution of DOPC, and a 10 mM ethanol solution of Chol were mixed at desired ratio (cationic lipid:DOPC:Chol=52.5:7.5:40 (molar ratio)) in an Eppendorf tube to achieve the total lipid amount of 720 nmol. To the obtained mixture was further added DMG-PEG2k (2 mM ethanol solution) in an amount of about 1.5 mol with respect to the total amount 100 mol of cationic lipid, DOPC, and Chol, and then ethanol was added to prepare an ethanol solution of the lipid (total amount: 360 μL).
(§1) An acidic malic acid buffer (20 mM, pH 3.0) (1080 μL) containing NaCl at a final concentration of 30 mM and an ethanol solution (360 μL) of lipid were each weighed in a syringe. Using an ultra high-speed nanomedicament producing apparatus NanoAssmblr (manufactured by Precision NanoSystems), LNP was prepared under the conditions of addition rate of acidic buffer solution: 3 mL/min, addition rate of ethanol solution of lipid: 1 mL/min, and syringe holder temperature: 25° C., and collected in a 15 mL tube. MES buffer (pH 6.5) (3000 μL) was added to the 15 mL tube, the obtained mixture was transferred to Amicon Ultra 4, and ultrafiltration was performed under centrifugation conditions (25° C., 1000 g, 6 min) to concentrate the mixture to about 100 μL. The obtained concentrate was diluted with PBS to 4 mL, and the mixture was concentrated again under centrifugation conditions (25° C., 1000 g, 6 min), and this operation was performed twice. The obtained concentrate was diluted with PBS to a lipid concentration of 0.5 mM to give a dispersion containing LNP.
20 mM Citrate buffer, sodium phosphate buffer, and tris HCl buffer, each containing NaCl at a final concentration of 150 mM and adjusted to various pHs within the range of pH 3.0 to 10.0, were prepared. TNS (manufactured by Sigma) was diluted with ultrapure water to 0.6 mM. TNS solution (2 μL), dispersions (12 μL) containing LNP prepared in [Experimental Example 1], 1., and buffers adjusted to various pHs (186 μL) were added to a black 96 well plate. The plate was protected from light and shaken at 400 rpm for 10 min. The fluorescence intensity (excitation: 321 nm/emission: 447 nm) was measured using a plate reader (manufactured by TECAN). The relative fluorescence intensity was calculated as a percentage, with the maximum value of the fluorescence intensity in each LNP being 100% and the minimum value being 0%. Furthermore, the pH at which the relative fluorescence intensity was 50% was taken as Liposomal pKa. In Comparative Example, the cationic lipid described in the aforementioned Table 3 were used.

The nature of series [2]: Particle size, PdI and zeta potential of mRNA-encapsulating LNPs (dynamic light scattering). The series is classed as physicochemical. Conditions: mRNA-encapsulating LNP, cationic lipid:DOPC:Chol=55:5:40 + about 1 mol DMG-PEG2k; for PdI / particle size: dynamic light scattering; for zeta potential: physiological pH. As to the method: A 10 mM ethanol solution of cationic lipid, a 5 mM ethanol solution of DOPC, and a 10 mM ethanol solution of Chol were mixed at desired ratio (cationic lipid:DOPC:Chol=55:5:40 (molar ratio)) in an Eppendorf tube to achieve the total lipid amount of 720 nmol. To the obtained mixture was further added DMG-PEG2k (2 mM ethanol solution) in an amount of about 1 mol with respect to the total amount 100 mol of cationic lipid, DOPC, and Chol, and then ethanol was added to prepare an ethanol solution of the lipid (total amount: 360 μL).
An acidic buffer solution (total amount: 1080 μL) of nucleic acid was prepared by weighing 7.2 μg of mRNA solution (0.6 mg/mL) in a 5 mL tube and adding acidic malate buffer (20 mM, pH 3.0) containing NaCl at a final concentration of 30 mM.
as §1, with “buffer solution of nucleic” for “malic”, “acid” for “acid buffer (20 mM, pH 3.0) (1080 μL) containing NaCl at a final concentration of 30 mM”, “solution” for “solution (360 μL)”, “solution of nucleic acid:” for “solution:”, “2” for “0.5”
The particle size, PdI (Polydispersity Index), and zeta potential of the mRNA-encapsulating LNP prepared by the method of the above-mentioned 1 were measured by a dynamic light scattering method. In Comparative Example, the cationic lipid described in the aforementioned Table 3 were used.

The test system of a further series is HeLa cells. In words: Evaluation of in vitro gene expression in HeLa cell (luciferase mRNA-encapsulating LNP). It is filed as cell-based, human. The conditions noted are these: for cumulative luciferase luminescence intensity over 24 hr: luciferase mRNA 0.4 μg per dish, LNP cationic lipid:DOPC:Chol:DMG-PEG2k=55:5:40:1; for gene expression activity compared to Comparative Example: result in words. As to the method:
(§2) LNP encapsulating mRNA that expresses luciferase (cationic lipid:DOPC:Chol:DMG-PEG2k=55:5:40:1 (molar ratio)) was prepared by the method described in [Experimental Example 2], 1.
HeLa cells, which are human cervical cancer cells, were seeded in a 3.5 cm dish at 5.0×10^4 cells/2 mL/Dish 24 hours before transfection. After 24 hours, the medium was exchanged with a culture medium (D-MEM) containing 0.1 mM D-luciferin. Prepared mRNA-encapsulating LNP was diluted with PBS such that the concentration of mRNA was about 8 μg/mL. The diluted mRNA-encapsulating LNP solution (about 50 μL, mRNA: 0.4 μg) was added to the 3.5 cm dish and set in an incubator luminometer KronosDio. The luminescence intensity of luciferase was measured for 2 min every one hour. The cumulative luciferase luminescence intensity for 24 hr was calculated from the obtained time change of expression. For example, “1.0E+06” means “1.0×10^6”. In Comparative Example, the cationic lipid described in the aforementioned Table 3 were used.

Another series has as its system BALB/c mouse. Description: Evaluation of in vivo gene expression (luciferase mRNA-encapsulating LNP, IVIS of isolated organs). The method, then:
as §2
The prepared each mRNA-encapsulating LNP dispersion was administered from the tail vein of BALB/c mouse (male, 5-week-old). The dose of mRNA was set to 0.05 mg per 1 kg body weight of the mouse, and the dose of the mRNA-encapsulating LNP dispersion was set to 10 μL per 1 g body weight of the mouse. After 4.5 hr from the administration of the mRNA-encapsulating LNP dispersion, a PBS solution of D-luciferin potassium was administered into the abdominal cavity of the mouse. The dose of D-luciferin potassium was set to 3 mg per mouse, and the dose of the PBS solution of D-luciferin potassium was set to 200 μL per mouse. After 15 min from the administration of the PBS solution of D-luciferin potassium, the mouse was euthanized, and the liver, spleen, kidney, heart, and lung were isolated. The luminescence in each organ was quantified using an in vivo imaging system (IVIS) with an exposure of 10 sec. The amount of luminescence in each organ was quantified by image analysis using Live Imaging software attached to IVIS. The amount of luminescence (photons/sec) was calculated from the acquired image and used as an index of gene expression activity. “E+0a” (a: integer) indicated in Table 7 and Table 8 means “10^a”. For example, “1.0E+02” means “1.0×10^2”. In Comparative Example, the cationic lipid described in the aforementioned Table 3 were used.

For the molecule `CCCCCCCCC(CCCCCC)C(=O)Oc1ccc(CC(=O)OCCSSCCOC(=O)CN(C)C)cc1` (stereo not drawn) [Example 1], in series [1], the pKa worked out at 5.7. In addition, in series [2], the PdI is on record as 0.072, the particle size is on record as 82 nm and the zeta potential is listed as −3.4 mV.
The like results for `CCCCCCCCCCC(CCCCCCCCCC)C(=O)Oc1ccc(CC(=O)OCCSSCCOC(=O)CN(C)C)cc1` [Example 2] were, in that order, 5.7, 0.072, 84 nm and −2.9 mV.
As to `CCCCCCCCC(CCCCCC)C(=O)Oc1ccc(CC(=O)OCCSSCCOC(=O)CCCN(C)C)cc1` (stereo not drawn) [Example 4], the pKa in series [1] is 7.8. In the series on HeLa cells, the “cumulative luciferase luminescence intensity over 24 hr” value turned out to be 3.09E+05 RLU. Further, in series [2], the PdI is recorded as 0.116, the particle size was found to be 64 nm and the zeta potential was determined as 12.2 mV.
As to `CCCCCCCCCCC(CCCCCCCCCC)C(=O)Oc1ccc(CC(=O)OCCSSCCOC(=O)CCCN(C)C)cc1` [Example 5], the pKa in series [1] is 7.8. Besides, in the series with HeLa cells, the “cumulative luciferase luminescence intensity over 24 hr” value came to 2.15E+08 RLU and the “gene expression activity compared to Comparative Example” value is “superior gene expression activity”. Further, in series [2], the PdI turned out to be 0.081, the particle size is 74 nm and the zeta potential is −2.9 mV.
As to `CCCCCCCCCCCCCCCCC(CCCCCCCCCCCCCCCC)C(=O)Oc1ccc(CC(=O)OCCSSCCOC(=O)CCCN(C)C)cc1` [Example 8], the pKa in series [1] was found to be 7.8. In the series on HeLa cells, the “cumulative luciferase luminescence intensity over 24 hr” value amounted to 2.83E+08 RLU and the “gene expression activity compared to Comparative Example” value is “superior gene expression activity”. In series [2], the PdI worked out at 0.101, the particle size was determined as 72 nm and the zeta potential was 5.3 mV.
With `CCCCCCCCCCCCCCCCC(CCCCCCCCCCCCCCCC)C(=O)Oc1ccc(CC(=O)OCCSSCCN(C)C)cc1` [Example 16], the pKa in series [1] was determined as 6.4. In addition, in series [2], the PdI was 0.067, the particle size worked out at 97 nm and the zeta potential is on record as −2.5 mV.
Take `CCCCCCCCCCCCCCCCC(CCCCCCCCCCCCCCCC)C(=O)Oc1ccc(CC(=O)NCCSSCCNC(=O)CCCN(C)C)cc1` [Example 20]: the pKa in series [1] was 8.8. The “relative value based on Comparative Example (amount of luminescence in spleen)” value in the series with BALB/c mouse (spleen, relative to O-Ph-P4C2 LNP = 1.00) amounted to 0.05. Further, in the series on BALB/c mouse (tail vein, mRNA 0.05 mg/kg, 4.5 hr + 15 min after administration, heart), the “amount of luminescence in each organ: heart” value worked out at 6.26E+05 photons/sec. Besides, the “amount of luminescence in each organ: kidney” value in the series on BALB/c mouse (tail vein, mRNA 0.05 mg/kg, 4.5 hr + 15 min after administration, kidney) turned out to be 4.34E+05 photons/sec. Besides, the “amount of luminescence in each organ: liver” value in the series on BALB/c mouse (tail vein, mRNA 0.05 mg/kg, 4.5 hr + 15 min after administration, liver) was found to be 4.95E+05 photons/sec. Moreover, in the series with BALB/c mouse (tail vein, mRNA 0.05 mg/kg, 4.5 hr + 15 min after administration, lung), the “amount of luminescence in each organ: lung” value came to 3.68E+05 photons/sec. The “amount of luminescence in each organ: spleen” value in the series on BALB/c mouse (tail vein, mRNA 0.05 mg/kg, 4.5 hr + 15 min after administration, spleen (Table 7)) is on record as 5.18E+05 photons/sec.
Regarding `CCCCCCCCCCCCCCCCC(CCCCCCCCCCCCCCCC)C(=O)Oc1ccc(CC(=O)OCCSSCCOC(=O)NCCN2CCOCC2)cc1` [Example 26], in series [1], the pKa was determined as 5.7. Also, the “cumulative luciferase luminescence intensity over 24 hr” value in the series on HeLa cells is 3.29E+05 RLU.
Turning to `CCCCCCCCCCCCCCCCC(CCCCCCCCCCCCCCCC)C(=O)Oc1ccc(CC(=O)OCCSSCCOC(=O)NCCN(CCCC)CCCC)cc1` [Example 27], the pKa in series [1] turned out to be 5.7. In the series on HeLa cells, the “cumulative luciferase luminescence intensity over 24 hr” value came out at 9.60E+05 RLU.
In the case of `CCCCCCCCCCCCCCCC(=O)OCC(C)(COC(=O)CCCCCCCCCCCCCCC)C(=O)Oc1ccc(CC(=O)OCCSSCCOC(=O)NCCN(CC)CC)cc1` [Example 32], the pKa in series [1] came to 7.2. Besides, in the series with HeLa cells, the “cumulative luciferase luminescence intensity over 24 hr” value stood at 8.77E+07 RLU and the “gene expression activity compared to Comparative Example” value is reported as “superior gene expression activity”.
With `CCCCCCCCCCCCCCCCCC(=O)OCC(C)(COC(=O)CCCCCCCCCCCCCCCCC)C(=O)Oc1ccc(CC(=O)OCCSSCCOC(=O)NCCN(CC)CC)cc1` [Example 33], the pKa in series [1] was 7.1. In addition, in the series on HeLa cells, the “cumulative luciferase luminescence intensity over 24 hr” value is on record as 5.38E+06 RLU.
In the case of `CCCCCCCC/C=C\CCCCCCCC(=O)Oc1ccc(CC(=O)OCC(C)(COC(=O)Cc2ccc(OC(=O)CCCCCCC/C=C\CCCCCCCC)cc2)C(=O)OCCSSCCOC(=O)NCCN(CC)CC)cc1` [Example 42], in series [1], the pKa amounted to 7.3. Also, in the series on HeLa cells, the “cumulative luciferase luminescence intensity over 24 hr” value came to 3.62E+07 RLU and the “gene expression activity compared to Comparative Example” value is “superior gene expression activity”.

One may read the pKa as the negative logarithm of the acid dissociation constant.

(Values after patent US20250213478A1, “CATIONIC LIPID HAVING DISULFIDE BOND, LIPID MEMBRANE STRUCTURE INCLUDING SAME, NUCLEIC ACID INTRODUCTION AGENT AND PHARMACEUTICAL COMPOSITION CONTAINING ANY ONE OF SAME, METHOD FOR INTRODUCING NUCLEIC ACID INTO CELL OR TARGET CELL, AND METHOD FOR PRODUCING CELLULAR PHARMACEUTICAL” (NOF Corporation, priority 2022, published 2025).)
